Source: patent publication US11000458B2, “Method and product for producing formulations containing ceramide” (Evonik Operations GmbH, priority 2017, dated 2021)

Assay: Minimum required dissolution temperature of ceramide NP in oils
Format: physicochemical
Experimental: The minimum required dissolution temperature for 0.1 g of ceramide NP in 20 g of various oils was determined.

## Ceramide NP
0.1 g of ceramide NP in 20 g Caprylic/Capric Triglycerides (TEGOSOFT ® CT)
  required dissolution temperatures: 95 °C
0.1 g of ceramide NP in 20 g Ethylhexyl Stearate (TEGOSOFT ® OS)
  required dissolution temperatures: 100 °C
0.1 g of ceramide NP in 20 g Persea gratissima (Avocado) oil
  required dissolution temperatures: 100 °C
